Data published in patent publication US20030144360A1, “Composition and method for modulating BAR/FXR receptor activity” (Allergan Sales, Inc., priority 2001, published 2003).
“And” between values parts separate entries of the source, which are not always exact repeats. Equal values may be shown once.

What was measured:
[1] = tested on: human AR, mouse PXR, human PXR, ERα, human LXRα, mouse PPARα, mouse PPARγ, mouse PPARδ, human VDR, human TRB, mouse CARβ; assay: Repression of cognate ligand-induced activity of other nuclear receptor/RXR heterodimers (luciferase reporter); type: cell-based; conditions: 1 mM AGN 34 with cognate ligand
Experimental: Resulting chemiluminescence was measured in a luminometer.
Various other nuclear receptor/RXR heterodimers were incubated with the cognate ligand of the non-RXR component of the heterodimer. These were: human AR (androgen receptor), mouse PXR (10 μM pregnenolone-16-carbonitrile), human PXR (10 μM rifampicin), ERα (100 nM 17β-estradiol), human LXRα (30 μM hyodeoxycholic acid methyl ester), mouse PPARα (5 μM Wy 14,643), mouse PPARγ (1 μM rosiglitazone), mouse PPARδ (1 μM carbaprostacyclin), human VDR (100 nM 1,25-dihydroxyvitamin D3) and human TRB (100 nM triiodothyronine). No ligand was added to mouse CARβ which is constitutively active. Each compound was incubated in the presence or absence of 1 mM AGN 34, then assayed for luciferase reporter activity.

GAL-L-hRXRa = molecular target: T1, GAL-L-hRXRa (Homo sapiens, UniProt P19793); assay: Co-transfection luciferase assay, MH100 × 4 reporter, GAL-L-hRXRa alone
T1 sequence (P19793 203-462): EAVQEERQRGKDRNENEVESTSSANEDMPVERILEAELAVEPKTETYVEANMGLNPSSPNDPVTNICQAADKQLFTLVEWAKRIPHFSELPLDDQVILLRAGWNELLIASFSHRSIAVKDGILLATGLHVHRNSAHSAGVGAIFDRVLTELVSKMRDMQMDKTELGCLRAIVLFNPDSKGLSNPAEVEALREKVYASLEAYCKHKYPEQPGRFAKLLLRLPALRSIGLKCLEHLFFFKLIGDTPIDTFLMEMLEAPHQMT
Experimental: (§1) CV-1 African Green Monkey cells were grown in Dulbecco's Modified Eagle's medium supplemented with 10% resin-charcoal stripped fetal bovine serum (FBS), 50 U/ml penicillin G and 50 μg/ml streptomycin sulfate (DMEM-FBS) at 37° C. in 5% CO2. One day prior to transfection, cells were plated to 50-80% confluence using phenol red-free DMEM-FBS. Cells were transiently transfected by lipofection as described in Forman et al., 81 Cell 687 (1995). Liposomes (N-[1-(2,3-dioleoyloxy)propyl]-N,N,N-ammonium methyl sulfate, sold by Boehringer Mannheim under the name DOTAP) were formed according to the manufacturer's instructions. The liposomes contained reporter gene constructs (300 ng/10^5 cells); cytomegalovirus driven expression vectors (25 ng/10^5 cells) were added as indicated along with CMX-Bgal (500 ng/10^5 cells) as an internal control. After 2 hours the liposomes were removed and replaced with fresh media. Cells were incubated for approximately 40 hours with phenol red-free DMEM-FBS containing the indicated compounds. After exposure to the specified ligand, the cells were harvested.
(§2) The harvested cells were assayed for the presence of luciferase activity. Cells were lysed in 0.1 M KPO4 (pH 7.8), 1.0% TRITON® X-100, 1.0 mM dithiolthreitol (DTT) and 2 mM ethylenediamine tetracetic acid (EDTA). Luciferase activity was measured by reaction of the cell lysates with luciferin in a reaction buffer comprising: 20 mM tricine, 1.07 mM Mg(CO3)4-Mg(OH)2-5H2O, 2.67 mM MgSO4.7H2O, 0.1 mM EDTA, 0.5 mM Sodium luciferin, 0.15 mg/ml Coenzyme A, 5 mM DTT, and 0.5 mM adenosine triphosphate (ATP). Resulting chemiluminescence was measured in a luminometer. […] All points were assayed in triplicate and varied by less than 15%. Each experiment was repeated three or more times with similar results.
(§3) As shown below, in most cases hRXRop was recombinantly coexpressed with one other of the indicated receptor constructs, so as to permit the formation of hetero-or homodimers containing hRXRop.
(§4) Expression of the luciferase reporter gene product was detected and quantified as described above.

RFXRop / HRXRop = molecular target: T2, RFXRop / HRXRop (UniProt P19793+Q62735); assay: Co-transfection luciferase assay, EcRE × 6 reporter, RFXRop + HRXRop;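 further: CV-1 monkey cells transiently transfected with receptor expression vectors, reporter construct and β-galactosidase internal control, exposed to compound about 40 h, then luciferase chemiluminescence read by luminometer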
T2 sequence (Q62735 1-469): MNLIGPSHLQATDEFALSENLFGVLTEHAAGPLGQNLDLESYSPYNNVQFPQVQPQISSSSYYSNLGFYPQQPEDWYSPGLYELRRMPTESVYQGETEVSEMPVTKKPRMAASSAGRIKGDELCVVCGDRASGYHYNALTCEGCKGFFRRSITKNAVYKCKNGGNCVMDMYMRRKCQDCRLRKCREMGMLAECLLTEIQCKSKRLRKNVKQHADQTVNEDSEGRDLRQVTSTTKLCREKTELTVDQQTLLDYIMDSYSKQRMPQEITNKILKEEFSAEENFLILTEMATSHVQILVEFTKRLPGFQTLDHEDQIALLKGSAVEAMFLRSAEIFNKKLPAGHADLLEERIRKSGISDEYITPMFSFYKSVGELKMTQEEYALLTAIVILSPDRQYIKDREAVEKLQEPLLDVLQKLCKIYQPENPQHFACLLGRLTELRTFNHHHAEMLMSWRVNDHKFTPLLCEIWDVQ
T2 sequence (P19793 1-462): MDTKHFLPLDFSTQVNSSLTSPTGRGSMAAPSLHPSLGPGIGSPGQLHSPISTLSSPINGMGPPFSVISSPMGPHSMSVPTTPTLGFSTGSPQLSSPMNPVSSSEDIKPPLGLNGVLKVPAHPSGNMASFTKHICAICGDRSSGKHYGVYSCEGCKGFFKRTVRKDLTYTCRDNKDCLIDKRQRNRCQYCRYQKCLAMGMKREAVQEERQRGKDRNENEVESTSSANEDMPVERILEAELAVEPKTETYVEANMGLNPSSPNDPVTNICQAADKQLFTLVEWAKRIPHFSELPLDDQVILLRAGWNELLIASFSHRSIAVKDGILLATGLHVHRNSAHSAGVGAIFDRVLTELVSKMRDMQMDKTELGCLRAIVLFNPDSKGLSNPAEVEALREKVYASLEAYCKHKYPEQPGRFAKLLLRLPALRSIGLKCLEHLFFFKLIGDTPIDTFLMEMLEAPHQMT
Experimental: as §1, §2, §3, §4

## CCCCCCOc1c(\C(C)=C/C=C/C(C)=C/C(=O)O)cc(C(C)C)cc1C(C)C [AGN 34, (2E, 4E, 6Z)-7-(2-Hexyloxy-3,5-diisopropylphenyl)-3-methylocta-2,4,6-trienoic Acid]
[1]
  repression of specific ligand-induced activity of other nuclear receptors: unable to repress
GAL-L-hRXRa; 0.1 μM LG268 + 0.01 μM AGN 34
  Fold Activation: 33.56 fold
  Reporter Activity: 11.17
GAL-L-hRXRa; 0.1 μM LG268 + 0.1 μM AGN 34
  Fold Activation: 8.61 fold
  Reporter Activity: 2.86
GAL-L-hRXRa; 0.1 μM LG268 + 1 μM AGN 34
  Fold Activation: 1.07 fold
  Reporter Activity: 0.36
GAL-L-hRXRa; 0.1 μM LG268 + 3 μM AGN 34
  Fold Activation: 1.05 fold
  Reporter Activity: 0.35
GAL-L-hRXRa; 0.1 μM LG268 + 10 μM AGN 34
  Fold Activation: 0.98 fold
  Reporter Activity: 0.33
GAL-L-hRXRa; 10 μM AGN 34 alone
  Fold Activation: 1.14 fold and 1.12 fold
  Reporter Activity: 0.38 and 0.37
GAL-L-hRXRa; 50 μM CDCA + 0.01 μM AGN 34
  Fold Activation: 1.03 fold
  Reporter Activity: 0.34
GAL-L-hRXRa; 50 μM CDCA + 0.1 μM AGN 34
  Fold Activation: 0.92 fold
  Reporter Activity: 0.31
GAL-L-hRXRa; 50 μM CDCA + 1 μM AGN 34
  Reporter Activity: 0.37
GAL-L-hRXRa; 50 μM CDCA + 3 μM AGN 34
  Fold Activation: 1.05 fold
  Reporter Activity: 0.35
GAL-L-hRXRa; 50 μM CDCA + 10 μM AGN 34
  Fold Activation: 1.10 fold
  Reporter Activity: 0.37
RFXRop / HRXRop; 0.1 μM LG268 + 0.01 μM AGN 34
  Fold Activation: 18.59 fold
  Reporter Activity: 5.24
RFXRop / HRXRop; 0.1 μM LG268 + 0.1 μM AGN 34
  Fold Activation: 1.55 fold
  Reporter Activity: 0.44
RFXRop / HRXRop; 0.1 μM LG268 + 1 μM AGN 34
  Fold Activation: 0.88 fold
  Reporter Activity: 0.25
RFXRop / HRXRop; 0.1 μM LG268 + 3 μM AGN 34
  Fold Activation: 0.92 fold
  Reporter Activity: 0.26
RFXRop / HRXRop; 0.1 μM LG268 + 10 μM AGN 34
  Fold Activation: 0.90 fold
  Reporter Activity: 0.25
RFXRop / HRXRop; 10 μM AGN 34 alone
  Fold Activation: 0.84 fold and 1.02 fold
  Reporter Activity: 0.27 and 0.29
RFXRop / HRXRop; 50 μM CDCA + 0.01 μM AGN 34
  Fold Activation: 9.03 fold
  Reporter Activity: 2.92
RFXRop / HRXRop; 50 μM CDCA + 0.1 μM AGN 34
  Fold Activation: 6.32 fold
  Reporter Activity: 2.05
RFXRop / HRXRop; 50 μM CDCA + 1 μM AGN 34
  Fold Activation: 3.94 fold and 4.99 fold
  Reporter Activity: 1.28
RFXRop / HRXRop; 50 μM CDCA + 3 μM AGN 34
  Fold Activation: 3.04 fold
  Reporter Activity: 0.98
RFXRop / HRXRop; 50 μM CDCA + 10 μM AGN 34
  Fold Activation: 3.94 fold
  Reporter Activity: 1.28
